Assay results taken from patent publication US7291601B1, “Arginine-rich anti-vascular endothelial growth factor peptides that inhibit growth and metastasis of human tumor cells by blocking angiogenesis” (Korea Greencross Corp., priority 1999, dated 2007).
Entries after “also recorded” stand apart in the source; their conditions may differ.

Legend:
rabbit corneal domes = assay: Rabbit corneal dome angiogenesis induced by VEGF; format: in vivo; details: VEGF 10 ng with 1 μg peptide, 16 days after operation; listed as Sequence 1
Experimental: To confirm the test results obtained from egg CAM, an experiment was performed using rabbit corneal domes for in vivo angiogenesis testing. New Zealand male rabbits weighing 3 kg (SLC, Japan) were subjected to intramuscular ketamine anesthesia (44 mg/kg), followed by dissecting the corneal domes to a length of 3 mm by use of an operating knife (Bard-Parker—#11). […] 16 days after the operation, angiogenesis was obviously observed and photographs were taken of blood vessels newly formed in the corneal dome (Nikon, FS-2, Japan).

VEGF8-109 = molecular target: T1, VEGF8-109 (Homo sapiens, UniProt P15692); assay: Inhibition of labeled VEGF8-109 binding to its receptors; details: FIG. 9
T1 construct: made in house; host or cells: E. coli BL21(DE3)pLysS, inclusion bodies
T1 sequence (P15692 214-315): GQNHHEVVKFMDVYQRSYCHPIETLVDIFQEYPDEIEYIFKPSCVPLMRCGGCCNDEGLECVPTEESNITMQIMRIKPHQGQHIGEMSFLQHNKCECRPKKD
Description: In order to verify this postulation, Sequence 1 (RRKRRR) was examined for the common binding domain on VEGF because it inhibited the binding of VEGF to its receptors at the highest efficiency. First, appropriate primers were synthesized and used to amplify various cDNAs coding for VEGF165, VEGF121, VEFG8-121, VEGF109, and VEGF8-109 while a human liver cDNA library (Clontech) served as a template. After being inserted to plasmid pRSET A (Invitrogen), the cDNAs were sequenced. The resulting five pRSET A vectors, each having one of the five cDNAs, were introduced into an expression strain (BL21(DE3)pLysS) containing T7 RNA polymerase. […] The purified VEGFs were quantified by use of a protein assay reagent (Bio-Rad) and all found to bind to VEGF receptors and exert growth hormone activity on HUVEC. […] For use, each labeled protein was quantified by ELISA (enzyme-linked immunosorbent assay) using a mouse monoclonal anti-VEGF antibody (R&D systems).
Each peptide was examined for antagonistic activity against VEGF in the same manner as in Example 2. Referring to FIG. 9, the radioactivity measured from ^125I-labeled VEGF associated with fixed Sequence 1 (RRKRRR) (SEQ ID NO: 1) is plotted in the absence of competitors and in the presence of competitors for various VEGF isomers. […]

Substance: H-RRKRRR-NH2 [compound 8, NH2-Arg-Arg-Lys-Arg-Arg-Arg-CONH2]
- VEGF-induced angiogenesis in the rabbit corneal dome (rabbit corneal domes): completely inhibited; also recorded: anti-angiogenic effect
- inhibition of binding of VEGF8-109 to its receptors (VEGF8-109): not inhibited
